From US20050282843A1, “Therapeutic applications of 2-substituted 4-heteroarylpyrimidines” (priority 2002, published 2005)
Like-named read-outs stand apart in the source and are kept apart here.

Tests used:
CDK2/cyclin E = molecular target: T1, CDK2/cyclin E (Homo sapiens, UniProt P24941); assay: CDK/cyclin kinase assay, CDK2/cyclin E; type: biochemical; details: read-out: Kinase inhibition IC50 CDK2/E
T1 construct: His6; made in house; host or cells: Sf9 insect cells (baculovirus)
Procedure: (§2) His6-tagged recombinant human cyclin-dependant kinases CDK1/cyclin B1, CDK2/cyclin E, CDK2/cyclin A, and CDK4 were expressed in sf9 insect cells using a baculovirus expression system. Recombinant cyclin D1 was expressed in E. coli. […] Kinase assays were performed in 96-well plates using recombinant CDK/cyclins. […] Reactions were stopped on ice, followed by filtration through p81 or GF/C filterplates (for CDK4) (Whatman Polyfiltronics, Kent, UK). After washing 3 times with 75 mM aq orthophosphoric acid, plates were dried, scintillant added and incorporated radioactivity measured in a scintillation counter (TopCount, Packard Instruments, Pangbourne, Berks, UK). Compounds for kinase assays were made up as 10 mM stocks in DMSO and diluted into 10% DMSO in assay buffer.

CDK4/cyclin D1 = CDK4/cyclin D1 (Homo sapiens, UniProt P11802); assay: CDK/cyclin kinase assay, CDK4/cyclin D1
Procedure: as §2

GSK-3β [1] = assay: GSK-3β kinase assay (phosphorylation of CREB phosphopeptide); type: biochemical, rabbit; details: ratio of IC50 values
Procedure: (§1) GSK-3 was obtained from New England Biolabs (UK) Ltd., Hitchin, Herts. The recombinant enzyme was isolated from a strain of E. coli that carries a clone expressing GSK-3β derived from a rabbit skeletal muscle cDNA library [Wang, Q. M.; Fiol, C. […] The samples were transferred to 96-well p81 filter plates (Whatman Polyfiltronics, Kent, UK), and the plates were washed 4 times with 200 μL/well of 75 mM aq orthophosphoric acid.

GSK-3β [2] = molecular target: GSK-3β (Oryctolagus cuniculus, UniProt G1T8E2); assay: as above; type: biochemical, rabbit
Procedure: as §1

CDK2/cyclin A = CDK2/cyclin A (Homo sapiens, UniProt P24941); assay: CDK/cyclin kinase assay, CDK2/cyclin A
Procedure: as §2

[3] = test system: cellular glycogen synthase activity in HEK293 cells; assay: Glycogen synthase (GS) assay in HEK293 cells; type: cell-based, human; details: In HEK293 cells at [compound] = 5 μM; over control samples
Procedure: Cells on 10 cm dishes (Human Embryonic Kidney (HEK) 293 cells, L6 rat myocytes, or 3T3 mouse adipocytes) were treated with different concentrations of GSK3-inhibitors or DMSO vehicle for 90 min. Incubation medium was removed and cells were washed with ice-cold phosphate-buffered saline (PBS) prior to lysis on ice in 50 mM HEPES, pH 7.5, 10 mM EDTA, 100 mM NaF, 5 mM DTT, protease inhibitor cocktail (Sigma). After a freeze/thaw cycle the samples are sonicated for 10 sec and centrifuged at 15,000 g for 10 min at 4° C. Lysate supernatants were snap-frozen on liquid nitrogen and stored at −80° C. Lysates were assayed for glycogen synthase activity in buffer (50 mM Tris-HCl, pH 7.8, 20 mM EDTA, 25 mM NaF, 5 mM DTT, 1% glycogen, 0.3 mM UDP-glucose and 0.06 μCi of [^14C]-UDP-glucose in the presence of 0.1 or 10 mM glucose-6-phosphate. The reaction was carried out for 30 min at 30° C. 70 μL of the reaction mixture (total volume 90 μL) were transferred to a GFC 96-well filter plate (bottom sealed with foil), containing 140 μL 96% ethanol. The GFC plate was incubated for 1 h on ice and than washed with 66% ethanol. To each well 100 μL scintillant liquid was added and the radioactivity of the samples was measured using a scintillation counter (Topcount, HP). Data are expressed as -fold increase in glycogen synthase activity ratios over those of control samples.

CDK1/cyclin B1 = CDK1/cyclin B1 (Homo sapiens, UniProt P06493); assay: CDK/cyclin kinase assay, CDK1/cyclin B1
Procedure: as §2

[4] = read-out: Kinase inhibition IC50 GSK3β

Sequence of CDK4/cyclin D1 (P11802 whole entry): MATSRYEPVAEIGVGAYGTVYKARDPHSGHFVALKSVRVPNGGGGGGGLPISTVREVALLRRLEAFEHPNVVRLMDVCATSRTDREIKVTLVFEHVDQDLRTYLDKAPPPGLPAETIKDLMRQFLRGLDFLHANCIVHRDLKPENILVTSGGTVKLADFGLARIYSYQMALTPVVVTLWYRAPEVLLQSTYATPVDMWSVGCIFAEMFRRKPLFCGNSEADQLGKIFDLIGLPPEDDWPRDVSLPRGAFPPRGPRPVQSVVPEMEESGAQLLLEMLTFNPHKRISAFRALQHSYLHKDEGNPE
Sequence of CDK4/cyclin D1 (P24385 whole entry partner): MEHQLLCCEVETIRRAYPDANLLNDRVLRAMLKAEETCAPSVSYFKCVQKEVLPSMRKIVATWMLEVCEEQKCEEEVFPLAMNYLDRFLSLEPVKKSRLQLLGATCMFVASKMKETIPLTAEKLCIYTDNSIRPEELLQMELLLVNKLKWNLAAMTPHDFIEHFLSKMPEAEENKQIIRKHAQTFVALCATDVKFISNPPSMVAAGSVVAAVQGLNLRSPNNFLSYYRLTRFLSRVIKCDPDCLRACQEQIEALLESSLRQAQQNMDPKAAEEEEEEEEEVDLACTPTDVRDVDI
Sequence of GSK-3β (Oryctolagus cuniculus, UniProt G1T8E2) (G1T8E2 1-432): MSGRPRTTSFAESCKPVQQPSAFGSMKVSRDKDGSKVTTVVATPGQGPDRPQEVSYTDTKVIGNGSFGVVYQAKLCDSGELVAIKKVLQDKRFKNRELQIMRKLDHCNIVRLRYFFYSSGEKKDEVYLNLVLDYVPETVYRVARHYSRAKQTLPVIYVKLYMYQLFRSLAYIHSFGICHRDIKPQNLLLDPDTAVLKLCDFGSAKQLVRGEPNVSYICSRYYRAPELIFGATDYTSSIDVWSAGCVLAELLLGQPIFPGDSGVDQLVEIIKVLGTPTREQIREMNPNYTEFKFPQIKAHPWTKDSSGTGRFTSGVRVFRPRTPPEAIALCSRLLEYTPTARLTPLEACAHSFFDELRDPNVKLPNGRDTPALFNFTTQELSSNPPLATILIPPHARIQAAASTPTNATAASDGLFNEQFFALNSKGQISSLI
Sequence of CDK1/cyclin B1 (P06493 whole entry): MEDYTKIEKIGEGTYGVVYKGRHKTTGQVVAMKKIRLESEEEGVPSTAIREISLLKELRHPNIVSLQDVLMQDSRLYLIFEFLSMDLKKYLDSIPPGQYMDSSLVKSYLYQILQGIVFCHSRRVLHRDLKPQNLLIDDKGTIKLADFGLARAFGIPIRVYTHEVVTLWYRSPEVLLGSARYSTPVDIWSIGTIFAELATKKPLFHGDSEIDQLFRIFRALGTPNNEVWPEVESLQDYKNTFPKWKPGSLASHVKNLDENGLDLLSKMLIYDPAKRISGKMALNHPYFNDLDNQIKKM
Sequence of CDK1/cyclin B1 (P14635 whole entry partner): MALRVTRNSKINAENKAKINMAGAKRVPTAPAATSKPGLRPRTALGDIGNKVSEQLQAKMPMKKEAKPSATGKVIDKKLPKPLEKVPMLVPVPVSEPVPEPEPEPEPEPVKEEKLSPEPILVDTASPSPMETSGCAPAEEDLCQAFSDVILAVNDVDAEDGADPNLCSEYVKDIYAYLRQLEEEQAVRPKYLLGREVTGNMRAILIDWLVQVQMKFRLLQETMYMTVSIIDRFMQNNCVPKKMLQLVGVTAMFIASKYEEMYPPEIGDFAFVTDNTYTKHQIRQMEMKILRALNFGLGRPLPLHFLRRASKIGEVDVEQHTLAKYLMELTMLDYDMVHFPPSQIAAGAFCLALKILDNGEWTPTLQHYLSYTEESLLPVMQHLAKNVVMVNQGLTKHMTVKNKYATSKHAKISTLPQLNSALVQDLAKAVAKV

SMILES	IC50 (CDK2/cyclin E) [µM]	IC50 (CDK4/cyclin D1) [µM]	Selectivity, IC50 (CDK2/E)/IC50 (GSK3β) (GSK-3β [1])	IC50 (GSK-3β [2]; [4]) [µM]	melting point [°C]	IC50 (CDK2/cyclin A) [µM]	-Fold induction of GS activity [3]	IC50 (CDK1/cyclin B1) [µM]	IC50 (GSK-3β [2]; read-out: IC50 value as measured by a GSK3β kinase assay) [µM]
Cc1[nH]c([N+](=O)[O-])c(C)c1-c1ccnc(Nc2ccc(N(C)C)cc2)n1 [Compound 15, N-[4-(2,4-Dimethyl-5-nitro-1H-pyrrole-3-yl)-pyrimidin-2-yl]-N′,N′-dimethyl-benzene-1,4-diamine]	0.96	1	1.0	0.95	265 to 268	–	–	–	–
Cc1[nH]c(C#N)c(C)c1-c1ccnc(Nc2ccc(I)cc2)n1 [Compound 5, 4-[2-(4-Iodo-phenylamino)-pyrimidin-4-yl]-3,5-dimethyl-1H-pyrrole-2-carbonitrile]	0.55	1.1	0.4	1.5	178.3 to 181.2	–	–	–	–
Cc1cc(Nc2nccc(-c3c(C)[nH]c(C#N)c3C)n2)ccc1Cl [Compound 9, 4-[2-(4-Chloro-3-methyl-phenylamino)-pyrimidin-4-yl]-3,5-dimethyl-1H-pyrrole-2-carbonitrile]	1	4	0.3	3.4	194.2 to 197.9	–	–	–	–
Cc1c(-c2ccnc(Nc3ccc(N(C)C)cc3)n2)c(C)n(C)c1C#N [Compound 38, 4-[2-(4-Dimethylamino-phenylamino)-pyrimidin-4-yl]-1,3,5-trimethyl-1H-pyrrole-2-carbonitrile]	1.1	1.3	9.2	0.12	–	0.93	1.3 -fold	2.8	–
Cc1[nH]c(Br)c(C)c1-c1ccnc(Nc2cccc([N+](=O)[O-])c2)n1 [Compound 17, [4-(5-Bromo-2,4-dimethyl-1H-pyrrole-3-yl)-pyrimidin-2-yl]-(3-nitro-phenyl)-amine]	0.37	4	1.3	0.28	198.1 to 203	–	–	–	< 1
COc1ccc(Nc2nccc(-c3sc(=O)n(C)c3C)n2)cc1 [Compound 24, 5-[2-(4-Methoxy-phenylamino)-pyrimidin-4-yl]-3,4-dimethyl-3H-thiazol-2-one]	0.76	1.1	0.7	1.1	–	0.7	–	0.97	–
Cc1ccc(Nc2nccc(-c3c(C)[nH]c(C#N)c3C)n2)cc1I [Compound 8, 4-[2-(3-Iodo-4-methyl-phenylamino)-pyrimidin-4-yl]-3,5-dimethyl-1H-pyrrole-2-carbonitrile]	0.86	0.98	0.5	1.8	189.5 to 191.7	–	–	–	–
